From US20170037028A1 (BAYER PHARMA AKTIENGESELLSCHAFT, priority 2013, published 2017)
Where two headings read alike, the source gives them in different places.

Molecular target: T1, GLUT1 (Homo sapiens, UniProt P11166)
T1 sequence (P11166 1-492): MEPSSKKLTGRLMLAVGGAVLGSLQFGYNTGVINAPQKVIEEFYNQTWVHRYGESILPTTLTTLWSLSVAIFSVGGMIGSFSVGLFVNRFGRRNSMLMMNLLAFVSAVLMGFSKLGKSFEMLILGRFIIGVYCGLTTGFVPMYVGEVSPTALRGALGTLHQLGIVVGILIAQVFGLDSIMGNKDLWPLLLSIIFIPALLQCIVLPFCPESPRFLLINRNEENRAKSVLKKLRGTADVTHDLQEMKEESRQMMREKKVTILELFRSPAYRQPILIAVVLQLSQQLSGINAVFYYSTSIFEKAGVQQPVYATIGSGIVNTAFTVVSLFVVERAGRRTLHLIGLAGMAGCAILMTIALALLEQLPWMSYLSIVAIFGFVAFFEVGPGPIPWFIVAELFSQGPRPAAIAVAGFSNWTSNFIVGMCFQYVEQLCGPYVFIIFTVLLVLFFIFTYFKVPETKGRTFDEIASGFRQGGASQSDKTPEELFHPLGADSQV
Test: Indirect measurement of GLUT1 activity by quantification of intracellular ATP levels (glucose induced ATP increase)
Assay type: cell-based
Design: endogenous in cells; host or cells: DLD1 or CHO-K1
Settings: read-out: IC50 regarding glucose induced ATP increase (GLUT1 inhibition)
Excerpt: Indirect Measurement of GLUT1 and GLUT2 Activity by Quantification of Intracellular ATP Levels
It is well known that a combination of small-molecule inhibitors of mitochondrial electron transport chain and glucose catabolism synergistically suppress ATP production and impair cellular viability (Ulanovskaya et al., 2008, 2011; Liu, et al. 2001). We therefore used DLD1 or CHO-K1 cells in combination with an oxidative phosphorylation inhibitor to identify GLUT1 and GLUT2 inhibitors. Cell lines were maintained in DMEM medium supplemented with 10% FCS and 1% Penicillin-Streptomycin solution and 2% Glutamax. The cells were treated with trypsin and seeded into 384 plates at a density of 4000 cells/well. The cells were then cultured overnight in glucose free media containing 1% FCS to reduce intracellular ATP levels. […] The CellTiter-Glo® Luminescent Cell Viability Assay from Promega was then used to measure ATP Levels.

Compound | IC50 (DLD1 cells, 0.1 mM glucose, 1 μM Rotenone, 15 min, CellTiter-Glo ATP readout, IC50 values standardized to cytochalasin B IC50 values) [nM] | IC50 [nM]
6-cyano N^4-[1-(4-cyanobenzyl)-5-methyl-3-(trifluoromethyl)-1H-pyrazol-4-yl]quinoline-2,4-dicarboxamide [Example 337] | 1.9 | 
Cc1nn(C(C)c2ccc(C#N)cc2)c(C)c1NC(=O)c1cc(C(N)=O)nc2ccccc12 (racemic) [Example 329, (±)-N^4-{1-[1-(4-cyanophenyl)ethyl]-3,5-dimethyl-1H-pyrazol-4-yl}quinoline-2,4-dicarboxamide] |  | 1.1
Cc1nn(C(C)c2ccc(C#N)cc2)c(C)c1NC(=O)c1cc(C(N)=O)nc2cc(F)c(Cl)cc12 (racemic) [Example 330, (±)-6-chloro-N^4-{1-[1-(4-cyanophenyl)ethyl]-3,5-dimethyl-1H-pyrazol-4-yl}-7-fluoroquinoline-2,4-dicarboxamide] |  | 1.3
Cc1nn(C(C)c2ccc(C#N)cc2)c(C)c1NC(=O)c1cc(C(N)=O)nc2c(F)cccc12 (racemic) [Example 331, (±)-N^4-{1-[1-(4-cyanophenyl)ethyl]-3,5-dimethyl-1H-pyrazol-4-yl}-8-fluoroquinoline-2,4-dicarboxamide] |  | 2.5
Cc1c(NC(=O)c2cc(C(N)=O)nc3ccccc23)c(C(F)(F)F)nn1C(C)c1ccc(C#N)cc1 (racemic) [Example 333, (±)-N^4-{1-[1-(4-cyanophenyl)ethyl]-5-methyl-3-(trifluoromethyl)-1H-pyrazol-4-yl}quinoline-2,4-dicarboxamide] |  | 0.6
Cc1c(NC(=O)c2cc(C(N)=O)nc3cc(F)ccc23)c(C(F)(F)F)nn1C(C)c1ccccc1 (racemic) [Example 334, (±)-7-fluoro-N^4-[5-methyl-1-(1-phenylethyl)-3-(trifluoromethyl)-1H-pyrazol-4-yl]quinoline-2,4-dicarboxamide] |  | 7.5
CCOC(=O)N=S(C)(=O)c1ccc(Cn2nc(C)c(NC(=O)c3cc(C(N)=O)nc4ccccc34)c2C)cc1 (racemic) [Example 376, (±)-ethyl [{4-[(4-{[(2-carbamoylquinolin-4-yl)carbonyl]amino}-3,5-dimethyl-1H-pyrazol-1-yl)methyl]phenyl}(methyl)oxido-λ^6-sulfanylidene]carbamate] |  | 642
Cc1nn(Cc2ccc(S(C)(=N)=O)cc2)c(C)c1NC(=O)c1cc(C(N)=O)nc2ccccc12 (racemic) [Example 377] |  | 1100
Cc1c(NC(=O)c2cc([S+](C)[O-])nc3ccccc23)c(C(F)(F)F)nn1Cc1ccc(C#N)cc1 (racemic) [Example 383, (±)-N-[1-(4-cyanobenzyl)-5-methyl-3-(trifluoromethyl)-1H-pyrazol-4-yl]-2-(methylsulfinyl)quinoline-4-carboxamide] |  | 8.3
Cc1c(NC(=O)c2cc(S(C)=NC#N)nc3ccccc23)c(C(F)(F)F)nn1Cc1ccc(C#N)cc1 (racemic) [Example 385, (±)-N-[1-(4-cyanobenzyl)-5-methyl-3-(trifluoromethyl)-1H-pyrazol-4-yl]-2-(N-cyano-S-methylsulfinimidoyl)quinoline-4-carboxamide] |  | 81.7
Cc1c(NC(=O)c2cc(S(C)(=O)=NC#N)nc3ccccc23)c(C(F)(F)F)nn1Cc1ccc(C#N)cc1 (racemic) [Example 386, (±)-N-[1-(4-cyanobenzyl)-5-methyl-3-(trifluoromethyl)-1H-pyrazol-4-yl]-2-(N-cyano-S-methylsulfonimidoyl)quinoline-4-carboxamide] |  | 43.2
Cc1c(NC(=O)c2cc(S(C)(=N)=O)nc3ccccc23)c(C(F)(F)F)nn1Cc1ccc(C#N)cc1 (racemic) [Example 387, (±)-N-[1-(4-cyanobenzyl)-5-methyl-3-(trifluoromethyl)-1H-pyrazol-4-yl]-2-(S-methylsulfonimidoyl)quinoline-4-carboxamide] |  | 146
Cc1nn(Cc2ccc(C(=O)NCC3CCO3)cn2)c(C)c1NC(=O)c1cc(C(F)(F)F)nc2ccc(Br)cc12 (racemic) [Example 1124] |  | 72.6
Cc1nn(Cc2ccc(C(=O)N3CCC(O)C3)cc2)c(C)c1NC(=O)c1cc(C(F)(F)F)nc2ccc(Br)cc12 (racemic) [Example 1161] |  | 162
Cc1nn(Cc2ccc(C(=O)N3CCCC(O)C3)cc2)c(C)c1NC(=O)c1cc(C(F)(F)F)nc2ccc(Br)cc12 (racemic) [Example 1162] |  | 164
Cc1nn(Cc2ccc(C(=O)NC3CCNC3=O)cc2)c(C)c1NC(=O)c1cc(C(F)(F)F)nc2ccc(Br)cc12 (racemic) [Example 1166] |  | 170
Cc1nn(C(C)c2ccccc2)c(C)c1NC(=O)c1cc(C(F)(F)F)nc2ccc(Br)cc12 (racemic) [Example 1360] |  | 21.6
COc1cc(C(=O)Nc2c(C)nn(C(C)c3ccccc3)c2C)c2ccccc2n1 (racemic) [Example 1361] |  | 36.9
Cc1nn(C(C)c2ccccc2)c(C)c1NC(=O)c1cc(C(N)=O)nc2ccccc12 (racemic) [Example 1362] |  | 5.8

Compound | IC50 (DLD1 cells, 0.1 mM glucose, 1 μM Rotenone, 15 min, CellTiter-Glo ATP readout, IC50 values standardized to cytochalasin B IC50 values) [nM] | IC50 [nM]
Cc1nn(C(C)c2ccccc2)c(C)c1NC(=O)c1cc(C(N)=O)nc2cc(F)c(Cl)cc12 (racemic) [Example 1363] |  | 1.8
Cc1nn(C(C)c2ccc(F)cc2)c(C)c1NC(=O)c1cc(C(N)=O)nc2ccccc12 (racemic) [Example 1364] |  | 125
Cc1nn(C(C)c2ccc(F)cc2)c(C)c1NC(=O)c1cc(C(F)(F)F)nc2ccc(Br)cc12 (racemic) [Example 1374] |  | 42.6
Cc1nn(C(C)CCc2ccc(F)cc2)c(C)c1NC(=O)c1cc(C(F)(F)F)nc2ccc(Br)cc12 (racemic) [Example 1378] |  | 643
Cc1nn(C(C)CCc2ccc(F)cc2)c(C)c1NC(=O)c1cc(C(N)=O)nc2ccccc12 (racemic) [Example 1379] |  | 39.4
Cc1nn(C(C)CCc2ccc(F)cc2)c(C)c1NC(=O)c1cc(C(N)=O)nc2cc(F)c(Cl)cc12 (racemic) [Example 1380] |  | 3.7
Cc1c(NC(=O)c2cc(C(N)=O)nc3ccccc23)c(C(F)(F)F)nn1C(C)c1ccccc1 (racemic) [Example 1397] |  | 4.3
Cc1c(NC(=O)c2cc(C(F)(F)F)nc3ccc(Br)cc23)c(C(F)(F)F)nn1C(C)c1ccccc1 (racemic) [Example 1398] |  | 38.9
Cc1nn(Cc2ccc(S(C)(=N)=O)cc2)c(C)c1NC(=O)c1cc(C(F)(F)F)nc2ccc(Br)cc12 (racemic) [Example 1427] |  | 26.9
CCOC(=O)N=S(C)(=O)c1ccc(Cn2nc(C)c(NC(=O)c3cc(C(F)(F)F)nc4ccc(Br)cc34)c2C)cc1 (racemic) [Example 1433] |  | 717
Cc1c(NC(=O)c2cc(C(N)=O)nc3ccccc23)c(C(F)(F)F)nn1Cc1ccc(C(C)O)cc1 (racemic) [Example 1615] |  | 59.4
Cc1nn(Cc2ccc(C(C)O)cc2)c(C)c1NC(=O)c1cc(C(N)=O)nc2ccccc12 (racemic) [Example 1635] |  | 45.4
Cc1c(NC(=O)c2cc(C(N)=O)nc3ccccc23)c(C(F)(F)F)nn1Cc1cccc(C(C)O)c1 (racemic) [Example 1644] |  | 184
Cc1nn(Cc2cccc(C(C)O)c2)c(C)c1NC(=O)c1cc(C(N)=O)nc2ccccc12 (racemic) [Example 1645] |  | 319
Cc1nn(Cc2ccc(C(=O)N[C@H](C)[C@@H](C)O)cc2)c(C)c1NC(=O)c1cc(C(F)(F)F)nc2ccc(Br)cc12 (relative stereo) [Example 1057] |  | 15.1
Cc1c(NC(=O)c2cc(C(N)=O)nc3cc(F)ccc23)c(C(F)(F)F)nn1C(C)c1ccccc1 (single isomer, unassigned) [Example 335, (R or S)-7-fluoro-N^4-[5-methyl-1-(1-phenylethyl)-3-(trifluoromethyl)-1H-pyrazol-4-yl]quinoline-2,4-dicarboxamide] |  | 1.6
Cc1c(NC(=O)c2cc(C(N)=O)nc3cc(F)ccc23)c(C(F)(F)F)nn1C(C)c1ccccc1 (single isomer, unassigned) [Example 336, (S or R)-7-fluoro-N^4-[5-methyl-1-(1-phenylethyl)-3-(trifluoromethyl)-1H-pyrazol-4-yl]quinoline-2,4-dicarboxamide] |  | 150
Cc1c(NC(=O)c2cc(C(N)=O)nc3cc(F)ccc23)c(C(F)(F)F)nn1C(C)c1ccccc1 (single isomer, unassigned) [Example 379, (R or S)-7-fluoro-N^4-[5-methyl-1-(1-phenylethyl)-3-(trifluoromethyl)-1H-pyrazol-4-yl]quinoline-2,4-dicarboxamide] |  | 862
COc1ccc(Cn2nc(C)c(NC(=O)c3cc(OC)nc4ccccc34)c2C)cc1 [Example 1, 2-methoxy-N-[1-(4-methoxybenzyl)-3,5-dimethyl-1H-pyrazol-4-yl]quinoline-4-carboxamide] |  | 1.6
